Measured values as given in article PMC8999677, “Critical Assessment of a Structure-Based Screening Campaign for IDO1 Inhibitors: Tips and Pitfalls” (International Journal of Molecular Sciences, 2022).

Columns and labels:
[1] = Potentiometric logP determination (Sirius T3); format: physicochemical; conditions: for logP: n-octanol/ISA water biphasic system, read-out: explogP
Excerpt: (§1) Confirmed IDO1 ligands were profiled for the calculation and experimental determination of their acidic constant (calcpKa, exppKa) and n-octanol/water partition coefficient (calclogP, explogP). […] Four of these compounds (19–22) were titrated with a potentiometric method to determine the relative exppKa and explogP, using a Sirius T3 instrument. The remaining two compounds (16, 17) were not experimentally analyzed because their calcpKa values were too close to the upper detection limit of the Sirius T3 instrument.
(§2) Acidic constants (pKa) and octanol/water partition coefficients (logP) of confirmed hit compounds were firstly calculated using the pKa and logP plugins of the program Marvin (Marvin v20.11, ChemAxon, Budapest, Hungary).
(§3) The experiments were set up with Sirius T3 control software (Sirius T3 v1.1.3.0, Pion Inc. Ltd., Forest Row, East Sussex, UK), specifying the volume of the stock solution to be used, molecular weight, number of expected pKa and their calculated values (calcpKa), predicted logP (calclogP), and titration mode (from pH = 2 to 12 for basic compounds, and from pH = 12 to 2 for acidic compounds). To avoid issues of poor solubility during the titration in ISA water, the pKa analyses were carried out in triplicate with different ratios of organic cosolvent methanol and water (50%, 40%, and 30% methanol). Considering the modification of water’s dielectric constant in the presence of an organic solvent, the pKa at 0% of co-solvent was obtained through the method of Yasuda–Shedlovsky (YS) extrapolation to zero [58]. The validity of the analysis was assessed with the r^2 of the YS method, and results were considered acceptable with an r^2 ≥ 0.9. Titration results were analyzed with Sirius T3 refine software (Sirius T3 v1.1.3.0, Pion Inc. Ltd., Forest Row, East Sussex, UK). Octanol/water partition coefficient (logP) was measured through a potentiometric titration in a biphasic system, using ISA water and n-octanol. Specifically, Sirius T3 control software uses three evaluation models of experimental logP, whose choice is based on the calculated logP values (calclogP < 1, “Low-logP” method; 1 < calclogP < 3, “Medium-logP” method; calclogP > 3, “High-logP” method). Accordingly, the “Medium-logP” method was selected to evaluate the experimental logP (explogP) of the selected compounds. The titration was performed in triplicate and the raw data were elaborated using Sirius T3 refine software. The quality of the analysis was evaluated by comparing the titration curve of each analysis by calculating a root mean square deviation (RMSD). All the analysis yielded RMSD values < 0.5.

[2] = Potentiometric pKa determination (Sirius T3); format: physicochemical; conditions: for exppKa: Sirius T3, Yasuda-Shedlovsky extrapolation to 0% methanol, first or only value
Excerpt: as §1, §2, §3

[3] = molecular target: recombinant human IDO1 (rhIDO1) (Homo sapiens, UniProt P14902); assay: Full-point MST binding assay against labelled rhIDO1; conditions: for BEI (binding efficiency index): BEI = pKd/MW (kDa)
P1.HTR cells = assay: Cytotoxicity seen in the P1.HTR cellular assay; format: cell-based, mouse; conditions: 30 µM, data not shown
Protocol: Accordingly, no correlation could be found between cellular activities and enzymatic binding data of tested compounds.
A cellular assay was performed to assess the functional activity of confirmed hit compounds against IDO1. Briefly, P1.HTR cells, a highly transfectable clonal variant of mouse mastocytoma P815 [59], were cultured in Iscove’s modified Dulbecco’s medium supplemented with 10% fetal calf serum (FCS), 1 mM glutamine and penicillin/streptomycin at 37 °C in a humidified 7% CO2 incubator. P1.HTR cells were transfected by electroporation with plasmid constructs coding for murine IDO1 (P1.IDO1). A stable transfectant cell line was obtained by puromycin selection. Cells at the concentration of 0.25 × 10^6 cell/mL were incubated with 30 µM of compounds for 16 h, using a culture medium containing L-Trp at a concentration of 78.4 µM and a HEPES buffer at pH 7.2.

[4] = molecular target: fluorescently labelled rhIDO1 (NT650-IDO1) (Homo sapiens, UniProt P14902); assay: Single-point MST binding assay at 250 µM; conditions: 250 µM compound, 50 nM labelled rhIDO1; F-norm outside vehicle signal and SD
murine IDO1 = molecular target: T1, murine IDO1 (Mus musculus, UniProt P28776); assay: Cellular assay of IDO1 inhibition, L-Kyn production in P1.HTR cells; format: cell-based; conditions: 16 h; for FC L-Kyn (fold change of L-Kyn production): 30 µM compound, P1.HTR cells stably transfected with murine IDO1, versus vehicle, mean ± SD
T1 construct: expressed in transfected cells
Protocol: The functional activity of confirmed IDO1 ligands was estimated in murine mastocytoma cell line (P1.HTR) stably transfected with murine IDO1. Specifically, P1.HTR cells were cultured in presence of each compound at 30 µM concentration.
Briefly, P1.HTR cells, a highly transfectable clonal variant of mouse mastocytoma P815 [59], were cultured in Iscove’s modified Dulbecco’s medium supplemented with 10% fetal calf serum (FCS), 1 mM glutamine and penicillin/streptomycin at 37 °C in a humidified 7% CO2 incubator. P1.HTR cells were transfected by electroporation with plasmid constructs coding for murine IDO1 (P1.IDO1). A stable transfectant cell line was obtained by puromycin selection.
A cell culture incubated with an equivalent volume of DMSO (the vehicle in which compounds were solubilized) was used as a reference control. After the incubation, supernatants of cell cultures were recovered, and kynurenine concentration was detected by the HPLC method. Every cell assay was conducted in triplicate. Results were expressed as the mean ± standard deviation of the kynurenine fold change (L-Kyn FC), meaning the ratio between kynurenine concentration secreted in the supernatant of the compound-treated versus vehicle-treated cells. The detection of L-Kyn concentrations was performed by using a PerkinElmer, series 200 HPLC instrument. A Kinetex C18 column (250 × 4.6 mm, 5 μm, 100 A; Phenomenex, CA, USA), maintained at the temperature of 25 °C and a pressure of 1800 PSI, was used. […] L-Kyn was detected at 360 nm by an UV detector. The software TURBOCHROM 4 was used for evaluating the concentration of L-Kyn in samples by means of a calibration curve. The detection limit of the analysis was 0.05 μM.

Chain of fluorescently labelled rhIDO1 (NT650-IDO1) (P14902 whole entry): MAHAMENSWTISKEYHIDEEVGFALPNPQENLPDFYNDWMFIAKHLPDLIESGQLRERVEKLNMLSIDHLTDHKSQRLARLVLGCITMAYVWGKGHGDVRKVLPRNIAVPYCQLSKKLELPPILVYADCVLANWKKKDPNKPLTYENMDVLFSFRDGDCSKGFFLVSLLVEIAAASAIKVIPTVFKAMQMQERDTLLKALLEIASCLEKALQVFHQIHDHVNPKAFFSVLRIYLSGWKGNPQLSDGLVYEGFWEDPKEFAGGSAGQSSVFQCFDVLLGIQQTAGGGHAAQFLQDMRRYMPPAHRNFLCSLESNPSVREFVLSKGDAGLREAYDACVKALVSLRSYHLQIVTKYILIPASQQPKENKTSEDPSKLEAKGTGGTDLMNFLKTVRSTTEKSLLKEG
Chain of recombinant human IDO1 (rhIDO1) (P14902 whole entry): as above
T1 sequence (P28776 whole entry): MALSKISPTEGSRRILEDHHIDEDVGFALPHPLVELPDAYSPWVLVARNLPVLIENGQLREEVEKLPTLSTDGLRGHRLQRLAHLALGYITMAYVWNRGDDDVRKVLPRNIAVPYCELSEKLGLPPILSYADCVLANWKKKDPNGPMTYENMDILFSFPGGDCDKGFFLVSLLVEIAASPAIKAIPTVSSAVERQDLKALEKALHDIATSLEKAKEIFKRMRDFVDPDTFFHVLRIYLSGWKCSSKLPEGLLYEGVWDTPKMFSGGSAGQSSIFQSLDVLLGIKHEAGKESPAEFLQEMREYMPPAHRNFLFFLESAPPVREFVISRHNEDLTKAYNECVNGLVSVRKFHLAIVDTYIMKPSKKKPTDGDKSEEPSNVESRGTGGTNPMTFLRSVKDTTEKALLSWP

Row | SMILES | logP [1] | exppKa [2] | Kd [3] [µM] | BEI (binding efficiency index) [3] | Single-point MST classification [4] | Inhibition in P1.HTR cells (in words) (murine IDO1; 30 µM) | FC L-Kyn (fold change of L-Kyn production) (murine IDO1) | exppKa (second value) ([2]; Sirius T3, value printed after the slash) | explogP ([1]; n-octanol/water) | Cytotoxicity (P1.HTR cells)
1 | O=C(/C=C/c1ccco1)c1ccc(O)cc1 [VIS574 (22)] | 2.6 | 7.8 | 37 ± 16.8 | 21 |  |  |  |  |  | 
2 | O=C1Nc2ccccc2/C1=C/C(=O)c1ccccc1 [VIS540 (16)] |  |  | 37.5 ± 11.5 | 18 | binders |  |  |  |  | cytotoxic
3 | O=C(NC1CCC(F)(F)CC1)c1ccc2cc[nH]c2c1 [VIS557 (18)] |  |  | 4.83 ± 0.61 | 19 | binders | weak inhibitor |  |  |  | 
4 | O=C(NCc1ccccn1)c1nn[nH]c1-c1ccc(F)cc1 [VIS597 (21)] | 2 | 3.9 | 73.3 ± 16.2 | 14 | binders |  | 0.56 ± 0.05 | 6.3 |  | 
5 | O=C(Nc1nnc(-c2ccc(Cl)cc2)o1)C1CC1 [VIS572 (19)] | 2.1 | 8.1 | 51.9 ± 18.4 | 16 | binders |  |  |  |  | 

Second part, led by results:

Row | logP [1] | exppKa [2] | Kd [3] [µM] | BEI (binding efficiency index) [3] | Single-point MST classification [4] | Inhibition in P1.HTR cells (in words) (murine IDO1; 30 µM) | FC L-Kyn (fold change of L-Kyn production) (murine IDO1) | exppKa (second value) ([2]; Sirius T3, value printed after the slash) | explogP ([1]; n-octanol/water) | SMILES | Cytotoxicity (P1.HTR cells)
6 |  |  |  |  | false positive hit compound |  |  |  |  | NC(=O)Cn1c(/C=C/c2ccccc2)nc2ccccc21 [VIS539] | 
7 |  |  | 59.3 ± 22.9 | 16 | binders |  | 0.55 ± 0.02 |  |  | CN(C(=O)Nc1c[nH]c2ccccc12)c1ccccc1 [VIS544 (17)] | 
8 | 1.9 | 5.7 | 80.7 ± 10.6 | 15 | binders |  |  |  |  | NC(=O)C1CCN(c2ccc3cccc(O)c3n2)CC1 [VIS580 (20)] | 
9 |  | 6.7 |  |  |  |  |  |  | 3.2 | OC(CC1c2ccccc2-c2cncn21)C1CCCCC1 (stereo not drawn) [compound 10, NLG919 analogue, reference compound] | 
